Measured values taken from patent US20250154134A1, “COMPOUND AS FAK INHIBITOR AND USE THEREOF” (WIGEN BIOMEDICINE TECHNOLOGY (SHANGHAI) CO., LTD., priority 2022, published 2025).

What was measured:
FAK recombinant protein = FAK recombinant protein (Homo sapiens (Human), UniProt Q05397); assay: Inhibitory activity against FAK enzyme (HTRF, TK substrate); type: biochemical
Procedure: A compound serially diluted with DMSO was mixed with a FAK recombinant protein. After the mixture was left to stand at room temperature for 10 min, a biotin-labeled TK substrate (TK) and ATP were added. […] The inhibition percentage and IC50 of the compound were calculated compared to the DMSO control group.

PC3 cells [1] = assay: PC3 cell proliferation, 2D activity assay (Cell Titer-Lumi, 72 h); type: cell-based, human; settings: Homo sapiens, PC-3, read-out: 2D inhibitory activity against PC3 cells IC50
PC3 cells [2] = assay: PC3 cell proliferation, 3D activity assay (3D culture, 14 days); type: cell-based, human; settings: Homo sapiens, PC-3, 336 h, read-out: 3D inhibitory activity against PC3 cells IC50

Chain of FAK recombinant protein (Q05397 whole entry): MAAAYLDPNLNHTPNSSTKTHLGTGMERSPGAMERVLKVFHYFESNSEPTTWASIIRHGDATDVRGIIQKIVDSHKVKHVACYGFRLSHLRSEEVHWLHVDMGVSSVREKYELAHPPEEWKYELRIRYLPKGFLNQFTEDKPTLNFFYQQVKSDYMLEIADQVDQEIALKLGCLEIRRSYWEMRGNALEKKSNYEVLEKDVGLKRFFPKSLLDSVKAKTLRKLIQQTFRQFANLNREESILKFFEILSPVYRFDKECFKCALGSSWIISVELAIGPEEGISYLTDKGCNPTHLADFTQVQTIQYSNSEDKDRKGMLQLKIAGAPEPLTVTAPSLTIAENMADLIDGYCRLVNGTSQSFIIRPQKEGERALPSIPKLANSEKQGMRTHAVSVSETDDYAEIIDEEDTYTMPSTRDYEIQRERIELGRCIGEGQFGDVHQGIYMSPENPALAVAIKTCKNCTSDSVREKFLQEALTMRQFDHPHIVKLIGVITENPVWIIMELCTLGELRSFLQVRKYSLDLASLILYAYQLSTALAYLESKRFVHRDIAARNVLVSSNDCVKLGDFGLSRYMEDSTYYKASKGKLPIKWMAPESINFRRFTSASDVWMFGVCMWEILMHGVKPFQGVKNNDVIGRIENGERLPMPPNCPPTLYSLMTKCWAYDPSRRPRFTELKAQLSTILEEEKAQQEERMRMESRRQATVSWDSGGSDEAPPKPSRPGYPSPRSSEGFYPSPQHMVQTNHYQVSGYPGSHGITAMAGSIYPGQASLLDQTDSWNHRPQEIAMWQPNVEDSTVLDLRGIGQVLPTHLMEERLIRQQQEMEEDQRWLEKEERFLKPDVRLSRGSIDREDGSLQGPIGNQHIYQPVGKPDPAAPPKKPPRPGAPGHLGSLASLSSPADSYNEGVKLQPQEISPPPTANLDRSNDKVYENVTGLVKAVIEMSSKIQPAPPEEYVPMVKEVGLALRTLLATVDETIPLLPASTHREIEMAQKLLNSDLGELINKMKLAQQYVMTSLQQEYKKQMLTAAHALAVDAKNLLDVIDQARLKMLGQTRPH

SMILES	IC50 (FAK recombinant protein) [nM]	IC50 (PC3 cells [1]) [nM]	IC50 (PC3 cells [2]) [nM]
COc1cc(C(=O)NC2CC3(CCN(C)CC3)C2)c(F)cc1Nc1ncc(Cl)c(Oc2cccc3c2C(=O)N(C)C32CC2)n1 [Compound 132, 4-((5-chloro-4-((2′-methyl-3′-oxospiro[cyclopropane-1,1′-isoindolin]-4′-yl)oxy)pyrimidin-2-yl)amino)-2-fluoro-5-methoxy-N-(7-methyl-7-azaspiro[3.5]nonan-2-yl)benzamide]	< 20	> 2000	5 to 50
COc1cc(C(=O)NC2CC3(CCN(C)CC3)C2)ccc1Nc1ncc(Cl)c(Oc2cccc3c2C(=O)N(C)C32CC2)n1 [Compound 133, 4-((5-chloro-4-((2′-methyl-3′-oxospiro[cyclopropane-1,1′-isoindolin]-4′-yl)oxy)pyrimidin-2-yl)amino)-3-methoxy-N-(7-methyl-7-azaspiro[3.5]nonan-2-yl)benzamide]	< 20	> 2000	5 to 50
COc1cc(C2CCN(C)CC2)c(F)cc1Nc1ncc(Cl)c(Oc2cccc3c2C(=O)N(C)C32CC2)n1 [Compound 134, 4′-((5-chloro-2-((5-fluoro-2-methoxy-4-(1-methylpiperidin-4-yl)phenyl)amino)pyrimidin-4-yl)oxy)-2′-methylspiro[cyclopropane-1,1′-isoindolin]-3′-one]	< 20	> 2000	< 5
COc1cc(C2CCN(C)CC2)ccc1Nc1ncc(Cl)c(Oc2cccc3c2C(=O)N(C)C32CC2)n1 [Compound 135, 4′-((5-chloro-2-((2-methoxy-4-(1-methylpiperidin-4-yl)phenyl)amino)pyrimidin-4-yl)oxy)-2′-methylspiro[cyclopropane-1,1′-isoindolin]-3′-one]	< 20	> 2000	< 5
COc1cc(N2CCC(N3CCN(C)CC3)CC2)c(F)cc1Nc1ncc(Cl)c(Oc2cccc3c2C(=O)N(C)C32CC2)n1 [Compound 138]	< 20	> 2000	< 5
COc1cc(N2CCN(C)CC2)c(F)cc1Nc1ncc(Cl)c(Oc2cccc3c2C(=O)N(C)C32CC2)n1 [Compound 140]	< 20	> 2000	5 to 50
COCCN1CCN(c2ccc(Nc3ncc(Cl)c(Oc4cccc5c4C(=O)N(C)C54CC4)n3)c(OC)c2)CC1 [Compound 142]	< 20	> 2000	< 5
COCCN1CCN(c2cc(OC)c(Nc3ncc(Cl)c(Oc4cccc5c4C(=O)N(C)C54CC4)n3)cc2F)CC1 [Compound 143]	< 20	> 2000	< 5
COc1cc(N2CCN(CC(=O)N(C)C)CC2)ccc1Nc1ncc(Cl)c(Oc2cccc3c2C(=O)N(C)C32CC2)n1 [Compound 144]	< 20	> 2000	< 5
COc1cc(N2CC3(CN(C)C3)C2)c(F)cc1Nc1ncc(Cl)c(Oc2cccc3c2C(=O)N(C)C32CC2)n1 [Compound 145]	< 20	> 2000	5 to 50
COc1cc(N2CC3(CN(C)C3)C2)ccc1Nc1ncc(Cl)c(Oc2cccc3c2C(=O)N(C)C32CC2)n1 [Compound 146]	< 20	> 2000	5 to 50
COc1cc(N2CCC3(CCN(C)CC3)CC2)ccc1Nc1ncc(Cl)c(Oc2cccc3c2C(=O)N(C)C32CC2)n1 [Compound 147]	< 20	> 2000	< 5
COc1cc(N2CCC3(CC2)CN(C)C3)c(F)cc1Nc1ncc(Cl)c(Oc2cccc3c2C(=O)N(C)C32CC2)n1 [Compound 148]	< 20	> 2000	< 5
COc1cc(N2CCC3(CC2)CN(C)C3)ccc1Nc1ncc(Cl)c(Oc2cccc3c2C(=O)N(C)C32CC2)n1 [Compound 149]	< 20	> 2000	< 5
COc1cc(N2CCC3(CCN(C)C3)C2)c(F)cc1Nc1ncc(Cl)c(Oc2cccc3c2C(=O)N(C)C32CC2)n1 (stereo not drawn) [Compound 150]	< 20	> 2000	< 5
COc1cc(N2CCC3(CCN(C)C3)C2)ccc1Nc1ncc(Cl)c(Oc2cccc3c2C(=O)N(C)C32CC2)n1 (stereo not drawn) [Compound 151]	< 20	> 2000	< 5
COc1cc(N2CCC(N(C)C)CC2)c(F)cc1Nc1ncc(Cl)c(Oc2cccc3c2C(=O)N(C)C32CC2)n1 [Compound 152]	< 20	> 2000	5 to 50
COc1cc(CN2CCN(C)CC2)ccc1Nc1ncc(Cl)c(Oc2cccc3c2C(=O)N(C)C32CC2)n1 [Compound 153, 4′-((5-chloro-2-((2-methoxy-4-((4-methylpiperazin-1-yl)methyl)phenyl)amino)pyrimidin-4-yl)oxy)-2′-methylspiro[cyclopropane-1,1′-isoindolin]-3′-one]	< 20	> 2000	< 5
COc1cc(CNC2CCN(C)CC2)ccc1Nc1ncc(Cl)c(Oc2cccc3c2C(=O)N(C)C32CC2)n1 [Compound 155]	< 20	> 2000	5 to 50
COc1cc(CN(C)C2CCN(C)CC2)c(F)cc1Nc1ncc(Cl)c(Oc2cccc3c2C(=O)N(C)C32CC2)n1 [Compound 156]	< 20	> 2000	5 to 50
COc1cc(N2CC(N3CCN(C)CC3)C2)ccc1Nc1ncc(Cl)c(Oc2cccc3c2C(=O)N(C)C32CC2)n1 [Compound 157, 4′-((5-chloro-2-((2-methoxy-4-(3-(4-methylpiperazin-1-yl)azetidin-1-yl)phenyl)amino)pyrimidin-4-yl)oxy)-2′-methylspiro[cyclopropane-1,1′-isoindolin]-3′-one]	< 20	> 2000	< 5
COc1cc(N2CC(N3CC(N(C)C)C3)C2)ccc1Nc1ncc(Cl)c(Oc2cccc3c2C(=O)N(C)C32CC2)n1 [Compound 158]	< 20	> 2000	5 to 50
COc1cc(N2CC(N3C4CCC3CN(C)C4)C2)ccc1Nc1ncc(Cl)c(Oc2cccc3c2C(=O)N(C)C32CC2)n1 [Compound 161]	< 20	> 2000	< 5
COc1cc(N2CCC(N3CC4CC(C3)N4C)CC2)ccc1Nc1ncc(Cl)c(Oc2cccc3c2C(=O)N(C)C32CC2)n1 [Compound 163]	< 20	> 2000	5 to 50
COc1cc(N2CC3CC(C2)N3C)ccc1Nc1ncc(Cl)c(Oc2cccc3c2C(=O)N(C)C32CC2)n1 [Compound 165]	< 20	> 2000	5 to 50
COc1cc(N2C3CCC2CN(C)C3)ccc1Nc1ncc(Cl)c(Oc2cccc3c2C(=O)N(C)C32CC2)n1 [Compound 166]	< 20	> 2000	5 to 50

Second part, the compound after the results:

IC50 (FAK recombinant protein) [nM]	IC50 (PC3 cells [1]) [nM]	IC50 (PC3 cells [2]) [nM]	SMILES
< 20	> 2000	5 to 50	COc1cc(N2CC(N(C)C)C2)ccc1Nc1ncc(Cl)c(Oc2cccc3c2C(=O)N(C)C32CC2)n1 [Compound 159]
< 20	> 2000	5 to 50	COc1cc(N2C3CC2CN(C)C3)ccc1Nc1ncc(Cl)c(Oc2cccc3c2C(=O)N(C)C32CC2)n1 [Compound 164]
< 20	> 2000	5 to 50	COc1cc(N2CCC3C(CCN3C)C2)ccc1Nc1ncc(Cl)c(Oc2cccc3c2C(=O)N(C)C32CC2)n1 (stereo not drawn) [Compound 167]
< 20	> 2000	< 5	COc1cc(N2CCC3CN(C)CCC32)ccc1Nc1ncc(Cl)c(Oc2cccc3c2C(=O)N(C)C32CC2)n1 (stereo not drawn) [Compound 168]
< 20	> 2000	< 5	COc1cc(N2CC3CN(C)CC3C2)ccc1Nc1ncc(Cl)c(Oc2cccc3c2C(=O)N(C)C32CC2)n1 (stereo not drawn) [Compound 169]
< 20	> 2000	5 to 50	COc1cc(N2CC3CCN(C)C3C2)ccc1Nc1ncc(Cl)c(Oc2cccc3c2C(=O)N(C)C32CC2)n1 (stereo not drawn) [Compound 170]
< 20	> 2000	5 to 50	COc1cc(N2CCC3CN(C)CC32)ccc1Nc1ncc(Cl)c(Oc2cccc3c2C(=O)N(C)C32CC2)n1 (stereo not drawn) [Compound 172]
< 20	> 2000	< 5	COc1cc(N2CCC3CN(C)CC3C2)ccc1Nc1ncc(Cl)c(Oc2cccc3c2C(=O)N(C)C32CC2)n1 (stereo not drawn) [Compound 173]
< 20	> 2000	< 5	COc1cc(C(=O)NC2CCN(C)CC2)c(F)cc1Nc1ncc(Br)c(Oc2cccc3c2C(=O)N(C)C32CC2)n1 [Compound 174, 4-((5-bromo-4-((2′-methyl-3′-oxospiro[cyclopropane-1,1′-isoindolin]-4′-yl)oxy)pyrimidin-2-yl)amino)-2-fluoro-5-methoxy-N-(1-methylpiperidin-4-yl)benzamide]
< 20	> 2000	< 5	COc1cc(C(=O)NC2CC3(CCN(C)CC3)C2)c(F)cc1Nc1ncc(Br)c(Oc2cccc3c2C(=O)N(C)C32CC2)n1 [Compound 175]
< 20	> 2000	< 5	COc1cc(C(=O)NC2CC3(CCN(C)CC3)C2)ccc1Nc1ncc(Br)c(Oc2cccc3c2C(=O)N(C)C32CC2)n1 [Compound 176]
< 20	> 2000	5 to 50	COc1cc(C2CCN(C)CC2)ccc1Nc1ncc(Br)c(Oc2cccc3c2C(=O)N(C)C32CC2)n1 [Compound 179]
< 20	> 2000	5 to 50	COc1cc(C2CCN(C)CC2)c(F)cc1Nc1ncc(Br)c(Oc2cccc3c2C(=O)N(C)C32CC2)n1 [Compound 180]
< 20	> 2000	< 5	COc1cc(N2CCC(N3CCN(C)CC3)CC2)c(F)cc1Nc1ncc(Br)c(Oc2cccc3c2C(=O)N(C)C32CC2)n1 [Compound 181]
